The test system of series [1] is corneal epithelial cells. The settings on record: cited from earlier work; for effect on healing of the damaged area of the epithelium: addition to the monolayer culture.
Series [2] has as its system epithelial cells of lenses. Particulars: cited from earlier work.
Series [3] deals with SV40 immortalized human corneal epithelial cell strain (HCEC). On the procedure: (§1) Cells Used: The corneal cell used herein was SV40 immortalized human corneal epithelial cell strain (HCEC) (Araki-Sasaki et al., IOVS, 1995, 36:614-621) and the conjunctival cell used herein was Chang's human conjunctival epithelial cell strain (CCL-20.2) (ATC CCCL-20.2).
(§2) Experiments: The cells were cultivated to a density of 5×10^4 cells/mL in a growth medium containing 10% serum, inoculated in a 96-well multiplate in an amount of 100 μL/well and cultivated at 37° C. overnight. After the cultivation thereof to a confluent of 30 to 50%, the culture medium was dissolved in a fresh culture medium, followed by the addition of stepwise diluted MS and further diclofenac sodium and the subsequent cultivation at 37° C. for 24 hours. After the cultivation, each well was washed, followed by the addition of a fresh culture medium (100 μL/well) and WST-8 (10 μL/well; Cell Counting Kit-8 available from DOJIN Chemical Co., Ltd.), subsequent cultivation for 1.5 hour and the determination of the absorbance at 450-660 nm to thus calculate the viable cell count.
(§3) Method for Evaluating Toxicity: A test group free of any candidate compound was used as a negative control, the absorbance thereof was assumed to be 100% and a dose-correlation curve was prepared, which was expressed as the cell survival rates as a function of the concentration of each test substance.

The test system of series [4] is Chang's human conjunctival epithelial cell strain (CCL-20.2). In kind it is cell-based. On the procedure:
as §1, §2, §3

Series [5] concerns corneal epithelial cells. The settings on record: cultivation of the epithelial cells; cited from earlier work.
The subject of series [6] is corneal epithelial cells. The settings on record: cited from earlier work.
Setting [7] is: added together with diclofenac sodium.
[8] abbreviates: MS 0.01 μM + diclofenac sodium 0.25 mM.
Where [9] appears, read: MS 0.01 μM + diclofenac sodium 0.5 mM.
The mark [10] stands for this setting: MS 0.01 μM, diclofenac sodium 0 mM.
The mark [11] stands for this setting: MS 0.1 μM + diclofenac sodium 0.25 mM.
The mark [12] stands for this setting: MS 0.1 μM + diclofenac sodium 0.5 mM.
[13] abbreviates: MS 0.1 μM, diclofenac sodium 0 mM.
The mark [14] stands for this setting: MS 1 μM + diclofenac sodium 0.25 mM.
Where [15] appears, read: MS 1 μM + diclofenac sodium 0.5 mM.
Where [16] appears, read: MS 1 μM, diclofenac sodium 0 mM.
The mark [17] stands for this setting: MS 10 μM + diclofenac sodium 0.25 mM.
Setting [18] is: MS 10 μM + diclofenac sodium 0.5 mM.
The mark [19] stands for this setting: MS 10 μM, diclofenac sodium 0 mM.
[20] abbreviates: MS 100 μM + diclofenac sodium 0.25 mM.
Where [21] appears, read: MS 100 μM + diclofenac sodium 0.5 mM.
[22] abbreviates: MS 100 μM, diclofenac sodium 0 mM.
[23] abbreviates: diclofenac sodium 0.25 mM, MS 0 μM, 24 hours.
[24] abbreviates: diclofenac sodium 0.5 mM, MS 0 μM, 24 hours.

Like-named read-outs stand apart in the source and are kept apart here.

On to EGF: epithelium growth factor (EGF), for which the “effect on healing of the damaged area of the epithelium” value in the series with corneal epithelial cells [1] is on record as “would promote the healing of the wound on the damaged area”.

On to `CCCCC(C)(C)[C@H](O)/C=C/[C@H]1[C@H](O)CC(=O)[C@@H]1C/C=C\CCCC(=O)O` [16,16-dimethyl prostaglandin E2], for which the “effect on healing of the damaged epithelium” value in the series with corneal epithelial cells [1] (added alone) and in the series on corneal epithelial cells [1] (setting [7]) was “does not show any effect on the healing of the damaged corneal epithelium” throughout.

`CCCCC[C@H](O)/C=C/[C@H]1[C@H](O)CC(=O)[C@@H]1C/C=C\CCCC(=O)O` [PGE2, prostaglandin E2]: in series [2] (1, 10, 50 and 100 μM added to the culture medium), the “effect on growth of lens epithelial cells” value was “permits the growth of the epithelial cells”.

For `CCCCC(C)(O)C/C=C/[C@H]1[C@H](O)CC(=O)[C@@H]1CCCCCCC(=O)OC` (mixture of isomers) [Misoprostol], the “cell survival rate (% of negative control)” value in series [3] (setting [8]) is reported as 69.9 ± 8.3%; in series [3] (setting [9]), 59.2 ± 10.4%; in series [3] (MS 0.01 μM + diclofenac sodium 1 mM), 21.1 ± 9.9%; in series [3] (setting [10]) it was 87.2 ± 13.2%; in series [3] (setting [11]), 72.5 ± 12.6%; in series [3] (setting [12]) it was 61.6 ± 13.6%. The “cell survival rate (% of negative control)” value amounted to 22.2 ± 8.3% in series [3] (MS 0.1 μM + diclofenac sodium 1 mM); 98.9 ± 20.4% in series [3] (setting [13]); 73.1 ± 11.7% in series [3] (setting [14]); 68.8 ± 17.1% in series [3] (setting [15]); 22.4 ± 8.0% in series [3] (MS 1 μM + diclofenac sodium 1 mM); 99.1 ± 22.3% in series [3] (setting [16]). Also, the “cell survival rate (% of negative control)” value worked out at 69.6 ± 10.5% in series [3] (setting [17]); 68.4 ± 13.4% in series [3] (setting [18]); 22.6 ± 9.5% in series [3] (MS 10 μM + diclofenac sodium 1 mM); 102.4 ± 24.5% in series [3] (setting [19]); 31.7 ± 8.8% in series [3] (setting [20]); 7.2 ± 4.5% in series [3] (setting [21]). For the same compound, the “cell survival rate (% of negative control)” value in series [3] (MS 100 μM + diclofenac sodium 1 mM) is −1.3 ± 1.3%; in series [3] (setting [22]), 99.2 ± 30.7%; in series [4] (MS 0.01 μM + diclofenac sodium 0.125 mM), 91.1 ± 8.1%; in series [4] (setting [8]), 42.6 ± 4.9%; in series [4] (setting [9]) it was 33.1 ± 7.4%; in series [4] (setting [10]), 93.0 ± 14.8%. Moreover, the “cell survival rate (% of negative control)” value in series [4] (MS 0.1 μM + diclofenac sodium 0.125 mM) was determined as 97.1 ± 4.5%; in series [4] (setting [11]), 45.0 ± 6.7%; in series [4] (setting [12]), 34.2 ± 9.3%; in series [4] (setting [13]), 98.6 ± 20.2%; in series [4] (MS 1 μM + diclofenac sodium 0.125 mM), 96.4 ± 8.4%; in series [4] (setting [14]) it was 44.0 ± 6.4%. Besides, the “cell survival rate (% of negative control)” value in series [4] (setting [15]) is given as 34.4 ± 12.2%; in series [4] (setting [16]), 104.0 ± 26.6%; in series [4] (MS 10 μM + diclofenac sodium 0.125 mM), 97.8 ± 9.6%; in series [4] (setting [17]), 46.4 ± 7.3%; in series [4] (setting [18]), 33.7 ± 9.4%; in series [4] (setting [19]) it was 99.5 ± 22.2%. The “cell survival rate (% of negative control)” value was 55.4 ± 14.7% in series [4] (MS 100 μM + diclofenac sodium 0.125 mM), 31.5 ± 7.4% in series [4] (setting [20]), 28.7 ± 6.4% in series [4] (setting [21]) and 86.3 ± 12.0% in series [4] (setting [22]). In addition, the “concentration at which MS per se had a cytotoxic effect” value in series [4] (human, 24 h) was found to be 100 µM.

On to `O=C(O)Cc1ccccc1Nc1c(Cl)cccc1Cl` [Diclofenac Sodium, diclofenac sodium], for which, in the series on corneal epithelial cells [5], the “effect on proliferation of the epithelium” value is “do not affect the proliferation of the epithelium”. Further, the “effect on proliferation of lens epithelial cells” value in series [2] (25, 50 and 100 μM added to the culture medium) was “control of the proliferation of the epithelial cells”. Besides, the “effect on epithelium extension promoted by EGF” value with corneal epithelial cells [6] (added simultaneously with EGF) is “inhibit the epithelium extension-promoting effect due to the EGF”. In addition, the “effect on extension of the corneal epithelial cells” value in the series with corneal epithelial cells [6] (agent alone) is recorded as “does not affect the extension of the corneal epithelial cells”. Also, the “effect on growth of the corneal epithelial cells” value in series [3] (0.25 mM, 0.5 mM or 1 mM, dose-dependent) is “inhibits the growth of the corneal epithelial cells”. Further, the “cell survival rate (% of negative control)” value was 56.9 ± 8.7% in series [3] (setting [23]); 48.2 ± 6.7% in series [3] (setting [24]); 17.3 ± 5.4% in series [3] (diclofenac sodium 1 mM, MS 0 μM, 24 hours); 74.0 ± 10.0% in series [4] (diclofenac sodium 0.125 mM, MS 0 μM, 24 hours); 37.8 ± 5.7% in series [4] (setting [23]); 29.3 ± 5.6% in series [4] (setting [24]). The “effect on healing of the damaged area of the epithelium” value in the series on corneal epithelial cells [1] is listed as “would inhibit the damaged epithelium-healing”.

With `CC(C)OC(=O)CCC/C=C\C[C@@H]1[C@@H](CC[C@@H](O)CCc2ccccc2)[C@H](O)C[C@@H]1O` [latanoprost], the “effect on healing of the damaged epithelium” value is recorded as “any such effect cannot be obtained” in the series with corneal epithelial cells [1] (added alone) and “can recover the healing of the damaged epithelium” in the series on corneal epithelial cells [1] (setting [7]).
